Patent US20110088107A1, “COMPOSITIONS AND METHODS FOR DERIVING OR CULTURING PLURIPOTENT CELLS” (priority 2009, published 2011)

Tests used:
naive-hESCs/hiPSCs = test: Signaling dependence of pluripotent cell lines, naive-hESC/hiPSC; assay type: cell-based, human; conditions: grown in PD/CH/FK/LIF, inhibitor or factor added
Experimental: (§1) Pluripotent cells were equally divided and plated on feeders in the indicated growth medium in which these cell lines are normally maintained, and 36 hours later the wells were supplemented with the indicated inhibitors or growth factors. After seven days, wells were fixed and stained to determine the relative percentage of colonies positive for pluripotency markers. SSEA1 staining was used for mouse stem cells. Colony formation was normalized to an internal control “Growth medium” without inhibitors (first left column). Normalized percentages lower than 5% are defined as “sensitivity” to the presence of the supplemented inhibitor. (B-C) Western blot analysis of total ERK1/2, phosphorylated ERK1/2 (pERK1/2) and phosphorylated Stat3 (pStat3). WIBR3 hESC and C1 hiPSC were grown in traditional bFGF/Activin containing media while naive-hESC/hiPSCs were grown in N2B27 PD/CH/FOR/LIF. ‘2×LIF’ indicates two fold increase in LIF concentration. (D) LIF/Stat3 is required for stabilization of naive-hESC/hiPSCs. Naïve NOD mESCs, WIBR3.5 and WIBR3.1 naive-hESC, and C1 naïve-hiPSCs were electroporated with a pBRY-CAGGS-flox-DsRedT4-IP control plasmid, a plasmid encoding a dominant negative Stat3 Y705F mutant (Stat3-DN), or a plasmid Stat3-C constitutively active mutant (pBRY-Stat3-CA). Cells were passaged three times in the presence of puromycin. After 20 days, colonies positive for pluripotency markers were counted and normalized to colonies from cells electroporated with empty vector (n=3 replicates for each condition). (E) RT-PCR expression of early germ cell markers in the presence or absence of BMP4/7/8 cytokines for 7 days. (F) Representative FISH analysis for XIST RNA (red) and Cot1 nuclear RNA (green). Pri-WIBR3.2 cell line was analyzed after passaging in conventional bFGF/serum-containing human ESC growth conditions. Numbers indicate average percentage of XIST positive nuclei counted.
(§2) Small molecules and cytokines were purchased from Tocris, Calbiochem or Sigma, and were supplemented as indicated at the following final concentration: JAK inhibitor (JAKi, 6 μM), Kenpaullone (KP, 5 μM), PD0325901 (PD, 1 μM); CHIR99021 (CH, […]), Forskolin (FK, 10 μM), FGF4-Receptor inhibitors PD173074 (0.1 μM) and SU5401 (2 μM); TGFβ/ALK inhibitors A83-01 (1 μM), RepSox (1 μM), ALK inhibitor (ALKi—SB431542, 2 μM); AICAR (0.5 mM); BixO1294 (1 μM); BayK8644 (1 μM); recombinant human BMP4 (10 ng/ml), recombinant human IL-6 (10 ng/ml), recombinant human TGFβ (500 ng/ml), Media with inhibitors was routinely replaced every 48 hours to sustain activity of compounds.

hESCs = test: Signaling dependence of pluripotent cell lines, conventional hESCs; assay type: cell-based, human; conditions: normal growth medium, inhibitor or factor added
Experimental: Pluripotent cells were equally divided and plated on feeders in the indicated growth medium in which these cell lines are normally maintained, and 36 hours later the wells were supplemented with the indicated inhibitors or growth factors. After seven days, wells were fixed and stained to determine the relative percentage of colonies positive for pluripotency markers. SSEA1 staining was used for mouse stem cells. Colony formation was normalized to an internal control “Growth medium” without inhibitors (first left column). […] (B-C) Western blot analysis of total ERK1/2, phosphorylated ERK1/2 (pERK1/2) and phosphorylated Stat3 (pStat3). WIBR3 hESC and C1 hiPSC were grown in traditional bFGF/Activin containing media while naive-hESC/hiPSCs were grown in N2B27 PD/CH/FOR/LIF. ‘2×LIF’ indicates two fold increase in LIF concentration. […] Cells were passaged three times in the presence of puromycin. […] (E) RT-PCR expression of early germ cell markers in the presence or absence of BMP4/7/8 cytokines for 7 days. (F) Representative FISH analysis for XIST RNA (red) and Cot1 nuclear RNA (green). Pri-WIBR3.2 cell line was analyzed after passaging in conventional bFGF/serum-containing human ESC growth conditions.

mEpiSCs = test: Signaling dependence of pluripotent cell lines, mEpiSCs; assay type: cell-based, mouse; conditions: normal growth medium, inhibitor or factor added
Experimental: as §1, §2

mESCs = test: Signaling dependence of pluripotent cell lines, mESCs; assay type: cell-based, mouse; conditions: normal growth medium, inhibitor or factor added
Experimental: Pluripotent cells were equally divided and plated on feeders in the indicated growth medium in which these cell lines are normally maintained, and 36 hours later the wells were supplemented with the indicated inhibitors or growth factors. After seven days, wells were fixed and stained to determine the relative percentage of colonies positive for pluripotency markers. SSEA1 staining was used for mouse stem cells. Colony formation was normalized to an internal control “Growth medium” without inhibitors (first left column). Normalized percentages lower than 5% are defined as “sensitivity” to the presence of the supplemented inhibitor. (B-C) Western blot analysis of total ERK1/2, phosphorylated ERK1/2 (pERK1/2) and phosphorylated Stat3 (pStat3). WIBR3 hESC and C1 hiPSC were grown in traditional bFGF/Activin containing media while naive-hESC/hiPSCs were grown in N2B27 PD/CH/FOR/LIF. ‘2×LIF’ indicates two fold increase in LIF concentration. (D) LIF/Stat3 is required for stabilization of naive-hESC/hiPSCs. Naïve NOD mESCs, WIBR3.5 and WIBR3.1 naive-hESC, and C1 naïve-hiPSCs were electroporated with a pBRY-CAGGS-flox-DsRedT4-IP control plasmid, a plasmid encoding a dominant negative Stat3 Y705F mutant (Stat3-DN), or a plasmid Stat3-C constitutively active mutant (pBRY-Stat3-CA). Cells were passaged three times in the presence of puromycin. After 20 days, colonies positive for pluripotency markers were counted and normalized to colonies from cells electroporated with empty vector (n=3 replicates for each condition). (E) RT-PCR expression of early germ cell markers in the presence or absence of BMP4/7/8 cytokines for 7 days. (F) Representative FISH analysis for XIST RNA (red) and Cot1 nuclear RNA (green). Pri-WIBR3.2 cell line was analyzed after passaging in conventional bFGF/serum-containing human ESC growth conditions. Numbers indicate average percentage of XIST positive nuclei counted. […]

NOD-iPS cells = test: Dox-independent propagation of Dox-dependent NOD-iPS cells in supplemented mESM; assay type: cell-based, mouse (NOD); conditions: mESM lacking Dox
Text: FIGS. 4(A)-4(H) illustrate generation of genetically unmodified germline competent NOD ES cells. (A) Experimental outline for derivation of iPS lines that grow in the presence of small molecules and in the absence of Dox. Representative images of NOD iPS lines growing in mESM supplemented with the indicated small molecules or growth factors. (B) Single-cell cloning efficiency of NOD iPS cells in different growth conditions. WT or NOD-iPS cells grown in mESM and KP were sorted in 96 well plates and cultured in mESM supplemented with small molecules. The number of wells containing Nanog+ colonies was counted after 6 days. Efficiencies were normalized to that of C57B6/129F1-iPS cells (“permissive” controls) plated in mESM and defined as 100%. SD for average efficiencies from 2 experiments are shown. Student test P value compares KP/CH to PD/CH mESM conditions for NOD iPS cells. (C) Expansion of day E3.5 ICM derived NOD ES cells in the presence of KP, KP/CH or PD/CH and derivation of stable ES lines. Images of initial colonies observed at passage 2 after embryo dissociation are shown together with representative images at later passages. (D) Karyotype of NOD ES lines. (E) Immunostaining of NOD ES lines for pluripotency markers. Inhibitors used during cell line derivation and propagation are indicated. (F) Chimerism in adult mice generated from the indicated cell lines is evident by the presence of agouti (brown) and albino coat color originating from the NOD background. […] (G) Real-Time PCR analysis for endogenous expressed Oct4, c-Myc and Klf4 genes in NOD iPS and ES cells grown in the indicated conditions. Relative expression levels are normalized to levels detected in control 129 ES cells. (H) Southern analysis indicating correct targeting of the endogenous Nanog locus in NOD ES cells with Nanog-GFP knock-in targeting construct.
Small molecules have been identified to replace some of the reprogramming factors in iPS derivation (Huangfu et al., 2008; Shi et al., 2008). […]

C1.2 hiPSCs = test: Screen for factors stabilizing C1 hiPSCs upon DOX withdrawal; assay type: cell-based, human; conditions: C1.2 hiPSCs without DOX
Experimental: FIGS. 9(A)-9(D) show the in vitro stabilization of naïve human pluripotent stem cells. […] C1 cells were plated on feeders in N2B27 media with the indicated factors. p-values using student's t-test indicates significant change in comparison to cells grown in DOX/PD/CH/LIF conditions, which were defined as a control (100% survival). (B) Scheme for reverting hESCs to generate “naive-hESCs”. (C) Representative images of WIBR3 hESCs at different stages of the reversion process in PD/CH/LIF/FK (P indicates passage number). (D) Representative images of naive-WIBR3.5 hESC line, derived by plating WIBR3 hESCs in PD/CH/FK/LIF medium without transfection of exogenous factors. Magnifications of captured images are indicated. Naïve human pluripotent cells were grown in serum-free N2B27 based media. […] Throughout the manuscript, indicated passage numbers of naïve-hiPSC/hESCs indicates number of passages counted after induction of the naïve state. […]

Cc1cccc(-c2nn(C(=S)Nc3ccccc3)cc2-c2ccnc3ccccc23)n1 [A83-01]
effect on pluripotency of naive-hESCs/hiPSCs (naive-hESCs/hiPSCs): maintained their pluripotent state | effect on pluripotency of conventional hESCs (hESCs): rapidly differentiated | effect on pluripotency of mEpiSCs (mEpiSCs): rapidly differentiated | effect on pluripotency of mESCs (mESCs): maintained their pluripotent state

Cc1c[nH]c(-c2cnc(NCCNc3ccc(C#N)cn3)nc2-c2ccc(Cl)cc2Cl)n1 [CHIR99021]
Dox-independent growth of pluripotent NOD-iPS cells (NOD-iPS cells): supported Dox-independent growth | role in the 13i+LIF cocktail on removing one inhibitor at a time (C1.2 hiPSCs): crucial components

CCN(CC)CCCCNc1ncc2cc(-c3cc(OC)cc(OC)c3)c(NC(=O)NC(C)(C)C)nc2n1 [PD173074]
effect on pluripotency of naive-hESCs/hiPSCs (naive-hESCs/hiPSCs): but not of naive-hESCs/hiPSCs or mESCs | effect on pluripotency of conventional hESCs (hESCs): resulted in the differentiation | effect on pluripotency of mEpiSCs (mEpiSCs): resulted in the differentiation

O=C(NOC[C@H](O)CO)c1ccc(F)c(F)c1Nc1ccc(I)cc1F [PD]
role in the 13i+LIF cocktail on removing one inhibitor at a time (C1.2 hiPSCs): crucial components | effect on pluripotency of conventional hESCs (hESCs): could not be propagated

TGFβ
effect on pluripotency of naive-hESCs/hiPSCs (naive-hESCs/hiPSCs): differentiated | effect on pluripotency of mESCs (mESCs): differentiated

Wnt3a
Dox-independent growth of pluripotent NOD-iPS cells (NOD-iPS cells): supported Dox-independent growth
